Values of other authors as cited in PubChem BioAssay AID1259409 (Chemical Carcinogenesis Research Information System (CCRIS), 2018).

Tested on: rodent chemically induced tumor inhibition, incidence and multiplicity
Experiment: CCRIS tumor inhibitor studies
Conditions: Promoter: NONE USED

CCO
tumour outcome (control, treated, inhibition, significance) (Carcinogen: AZOXYMETHANE, 25843-45-2, Dose [Inhibitor]: 33% OF TOTAL CALORIES OF DIET GIVEN CONTINUOUSLY FOR 3 WK PRIOR TO CARCINOGEN DOSE AND 10 WK DURING INDUCTION (STUDY DUR, Route [Inhibitor]: ORAL, Species: RAT, Strain/Sex: F344/MALE, Target Tissue: Type of Lesion: COLON: TUMOR, Dose [Carcinogen]: 14 MG/KG 1/WK FOR 10 WK): 91%, 5%, 94%, not calculated
tumour outcome (control, treated, inhibition, significance) (Carcinogen: AZOXYMETHANE, 25843-45-2, Dose [Inhibitor]: 33% OF TOTAL CALORIES OF DIET GIVEN CONTINUOUSLY FOR 3 WK PRIOR TO CARCINOGEN DOSE AND 10 WK DURING INDUCTION (STUDY DUR, Route [Inhibitor]: ORAL, Species: RAT, Strain/Sex: F344/MALE, Target Tissue: Type of Lesion: EAR CANAL: TUMOR, Dose [Carcinogen]: 14 MG/KG 1/WK FOR 10 WK): 9%, 0%, 100%, not calculated
tumour outcome (control, treated, inhibition, significance) (Carcinogen: AZOXYMETHANE, 25843-45-2, Dose [Inhibitor]: 33% OF TOTAL CALORIES OF DIET GIVEN CONTINUOUSLY FOR 3 WK PRIOR TO CARCINOGEN DOSE AND 10 WK DURING INDUCTION (STUDY DUR, Route [Inhibitor]: ORAL, Species: RAT, Strain/Sex: F344/MALE, Target Tissue: Type of Lesion: SMALL INTESTINE: TUMOR, Dose [Carcinogen]: 14 MG/KG 1/WK FOR 10 WK): 74%, 0%, 100%, p<0.0001
tumour outcome (control, treated, inhibition, significance) (Carcinogen: ETHYL CARBAMATE, 51-79-6, Dose [Inhibitor]: 0, 12% ADMINISTERED WITH CARCINOGEN IN DRINKING WATER FOR 41 WK (STUDY DURATION: 41 WK), Route [Inhibitor]: ORAL, Species: MOUSE, Strain/Sex: C3H/MALE, Target Tissue: Type of Lesion: LIVER: HEMANGIOENDOTHELIOMA, Dose [Carcinogen]: 20 MG/KG IN DRINKING WATER FOR 41 WK): 14%, 14%, 0%, not calculated
tumour outcome (control, treated, inhibition, significance) (Carcinogen: ETHYL CARBAMATE, 51-79-6, Dose [Inhibitor]: 0, 12% ADMINISTERED WITH CARCINOGEN IN DRINKING WATER FOR 41 WK (STUDY DURATION: 41 WK), Route [Inhibitor]: ORAL, Species: MOUSE, Strain/Sex: C3H/MALE, Target Tissue: Type of Lesion: LIVER: HEMANGIOSARCOMA, Dose [Carcinogen]: 10 MG/KG IN DRINKING WATER FOR 41 WK): 5%, 0%, 100%, not significant
tumour outcome (control, treated, inhibition, significance) (Carcinogen: ETHYL CARBAMATE, 51-79-6, Dose [Inhibitor]: 0, 12% ADMINISTERED WITH CARCINOGEN IN DRINKING WATER FOR 41 WK (STUDY DURATION: 41 WK), Route [Inhibitor]: ORAL, Species: MOUSE, Strain/Sex: C3H/MALE, Target Tissue: Type of Lesion: LIVER: HEMANGIOSARCOMA, Dose [Carcinogen]: 20 MG/KG IN DRINKING WATER FOR 41 WK): 24%, 0%, 100%, not significant
tumour outcome (control, treated, inhibition, significance) (Carcinogen: ETHYL CARBAMATE, 51-79-6, Dose [Inhibitor]: 0, 12% ADMINISTERED WITH CARCINOGEN IN DRINKING WATER FOR 41 WK (STUDY DURATION: 41 WK), Route [Inhibitor]: ORAL, Species: MOUSE, Strain/Sex: C3H/MALE, Target Tissue: Type of Lesion: LIVER: HEPATOCELLULAR ADENOMA, Dose [Carcinogen]: 10 MG/KG IN DRINKING WATER FOR 41 WK): 57%, 24%, 58%, not significant
tumour outcome (control, treated, inhibition, significance) (Carcinogen: ETHYL CARBAMATE, 51-79-6, Dose [Inhibitor]: 0, 12% ADMINISTERED WITH CARCINOGEN IN DRINKING WATER FOR 41 WK (STUDY DURATION: 41 WK), Route [Inhibitor]: ORAL, Species: MOUSE, Strain/Sex: C3H/MALE, Target Tissue: Type of Lesion: LIVER: HEPATOCELLULAR ADENOMA, Dose [Carcinogen]: 20 MG/KG IN DRINKING WATER FOR 41 WK): 48%, 57%, -19%, not significant
tumour outcome (control, treated, inhibition, significance) (Carcinogen: ETHYL CARBAMATE, 51-79-6, Dose [Inhibitor]: 0, 12% ADMINISTERED WITH CARCINOGEN IN DRINKING WATER FOR 41 WK (STUDY DURATION: 41 WK), Route [Inhibitor]: ORAL, Species: MOUSE, Strain/Sex: C3H/MALE, Target Tissue: Type of Lesion: LIVER: HEPATOCELLULAR CARCINOMA, Dose [Carcinogen]: 10 MG/KG IN DRINKING WATER FOR 41 WK): 5%, 0%, 100%, not significant
tumour outcome (control, treated, inhibition, significance) (Carcinogen: ETHYL CARBAMATE, 51-79-6, Dose [Inhibitor]: 0, 12% ADMINISTERED WITH CARCINOGEN IN DRINKING WATER FOR 41 WK (STUDY DURATION: 41 WK), Route [Inhibitor]: ORAL, Species: MOUSE, Strain/Sex: C3H/MALE, Target Tissue: Type of Lesion: LIVER: HEPATOCELLULAR CARCINOMA, Dose [Carcinogen]: 20 MG/KG IN DRINKING WATER FOR 41 WK): 14%, 5%, 64%, not significant
tumour outcome (control, treated, inhibition, significance) (Carcinogen: ETHYL CARBAMATE, 51-79-6, Dose [Inhibitor]: 0, 12% ADMINISTERED WITH CARCINOGEN IN DRINKING WATER FOR 41 WK (STUDY DURATION: 41 WK), Route [Inhibitor]: ORAL, Species: MOUSE, Strain/Sex: C3H/MALE, Target Tissue: Type of Lesion: LUNG: ALVEOLAR ADENOMA, Dose [Carcinogen]: 10 MG/KG IN DRINKING WATER FOR 41 WK): 19%, 0%, 100%, not significant
tumour outcome (control, treated, inhibition, significance) (Carcinogen: ETHYL CARBAMATE, 51-79-6, Dose [Inhibitor]: 0, 12% ADMINISTERED WITH CARCINOGEN IN DRINKING WATER FOR 41 WK (STUDY DURATION: 41 WK), Route [Inhibitor]: ORAL, Species: MOUSE, Strain/Sex: C3H/MALE, Target Tissue: Type of Lesion: LUNG: ALVEOLAR ADENOMA, Dose [Carcinogen]: 20 MG/KG IN DRINKING WATER FOR 41 WK): 48%, 38%, 21%, not significant
tumour outcome (control, treated, inhibition, significance) (Carcinogen: ETHYL CARBAMATE, 51-79-6, Dose [Inhibitor]: 0, 12% ADMINISTERED WITH CARCINOGEN IN DRINKING WATER FOR 41 WK (STUDY DURATION: 41 WK), Route [Inhibitor]: ORAL, Species: MOUSE, Strain/Sex: C3H/MALE, Target Tissue: Type of Lesion: LUNG: CLARA-CELL ADENOMA, Dose [Carcinogen]: 10 MG/KG IN DRINKING WATER FOR 41 WK): 52%, 24%, 54%, not significant
tumour outcome (control, treated, inhibition, significance) (Carcinogen: ETHYL CARBAMATE, 51-79-6, Dose [Inhibitor]: 0, 12% ADMINISTERED WITH CARCINOGEN IN DRINKING WATER FOR 41 WK (STUDY DURATION: 41 WK), Route [Inhibitor]: ORAL, Species: MOUSE, Strain/Sex: C3H/MALE, Target Tissue: Type of Lesion: LUNG: CLARA-CELL ADENOMA, Dose [Carcinogen]: 20 MG/KG IN DRINKING WATER FOR 41 WK): 57%, 38%, 33%, not significant
tumour outcome (control, treated, inhibition, significance) (Carcinogen: ETHYL CARBAMATE, 51-79-6, Dose [Inhibitor]: 0, 20% SIMULTANEOUSLY WITH CARCINOGEN 1/D FOR 8 WK (STUDY DURATION: 16 WK), Route [Inhibitor]: GAVAGE, Species: MOUSE, Strain/Sex: NMRI/FEMALE, Target Tissue: Type of Lesion: LUNG: ADENOMA, Dose [Carcinogen]: 18 MG/KG IN 20% ETHANOL 1/D FOR 8 WK (CONTROL GROUP ADMINISTERED CARCINOGEN IN WATER)): 65%, 76%, -17%, not significant
tumour outcome (control, treated, inhibition, significance) (Carcinogen: ETHYL CARBAMATE, 51-79-6, Dose [Inhibitor]: 0, 20% SIMULTANEOUSLY WITH CARCINOGEN 1/D FOR 8 WK (STUDY DURATION: 16 WK), Route [Inhibitor]: GAVAGE, Species: MOUSE, Strain/Sex: NMRI/FEMALE, Target Tissue: Type of Lesion: LUNG: ADENOMA, Dose [Carcinogen]: 36 MG/KG IN 20% ETHANOL 1/D FOR 8 WK (CONTROL GROUP ADMINISTERED CARCINOGEN IN WATER)): 96%, 83%, 14%, not significant
tumour outcome (control, treated, inhibition, significance) (Carcinogen: ETHYL CARBAMATE, 51-79-6, Dose [Inhibitor]: 0, 20% SIMULTANEOUSLY WITH CARCINOGEN 1/D FOR 8 WK (STUDY DURATION: 16 WK), Route [Inhibitor]: GAVAGE, Species: MOUSE, Strain/Sex: NMRI/FEMALE, Target Tissue: Type of Lesion: LUNG: ADENOMA, Dose [Carcinogen]: 90 MG/KG IN 20% ETHANOL 1/D FOR 8 WK (CONTROL GROUP ADMINISTERED CARCINOGEN IN WATER)): 100%, 100%, 0%, not significant
